# Results published in PMC11708041, “Structural basis of a microbial trimethylamine transporter” (mBio, 2024).
# T1: TmaT (Myroides profundi, UniProt A0A0B5RUB0)
# T1 construct: full-length, 529 residues, C-terminal 8xHis tag (pET-22b), expressed in E. coli C43(DE3), DDM-solubilised; homotrimer
# T1 sequence (A0A0B5RUB0 1-529): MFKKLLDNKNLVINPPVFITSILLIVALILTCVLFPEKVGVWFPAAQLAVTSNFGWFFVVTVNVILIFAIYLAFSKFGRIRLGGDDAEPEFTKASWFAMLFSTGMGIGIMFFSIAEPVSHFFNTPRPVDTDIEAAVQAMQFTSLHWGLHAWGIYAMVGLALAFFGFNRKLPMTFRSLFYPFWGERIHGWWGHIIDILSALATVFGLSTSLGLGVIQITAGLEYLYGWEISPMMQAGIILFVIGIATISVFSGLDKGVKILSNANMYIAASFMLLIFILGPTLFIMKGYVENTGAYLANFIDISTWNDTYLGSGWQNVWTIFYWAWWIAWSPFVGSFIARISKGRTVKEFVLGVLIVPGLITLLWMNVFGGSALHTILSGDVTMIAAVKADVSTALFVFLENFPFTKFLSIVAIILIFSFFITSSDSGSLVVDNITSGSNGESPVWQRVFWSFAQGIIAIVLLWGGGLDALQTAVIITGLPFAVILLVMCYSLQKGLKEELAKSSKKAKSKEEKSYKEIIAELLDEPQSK
# What was measured:
# TmaT = target: T1, TmaT; test: microscale thermophoresis; format: binding
# Source text: microscale thermophoresis on TmaT
# [1] = target: the molecule itself; test: cryo-EM structure; single-particle cryo-EM of purified TmaT (about 8 mg/mL, in DDM); apo TmaT, and with 2 mM or 5 mM TMA; homotrimer
Molecule,Kd (TmaT),stoichiometry N [1]
CN(C)C [TMA],49 ± 9.4 µM,–
"TmaT, TMA transporter of Myroides profundi D25 (natural protein, UniProt A0A0B5RUB0 1-529, looked up, TmaT, trimethylamine transporter of the betaine-choline-carnitine transporter (BCCT) family, Myroides profundi D25; full-length tmaT, 1,590 nucleotides encoding a 529-amino-acid polypeptide; no removal of the tag is described; Homotrimer in the cryo-EM structures; also called recombinant TmaT; WT TmaT) MFKKLLDNKNLVINPPVFITSILLIVALILTCVLFPEKVGVWFPAAQLAVTSNFGWFFVVTVNVILIFAIYLAFSKFGRIRLGGDDAEPEFTKASWFAMLFSTGMGIGIMFFSIAEPVSHFFNTPRPVDTDIEAAVQAMQFTSLHWGLHAWGIYAMVGLALAFFGFNRKLPMTFRSLFYPFWGERIHGWWGHIIDILSALATVFGLSTSLGLGVIQITAGLEYLYGWEISPMMQAGIILFVIGIATISVFSGLDKGVKILSNANMYIAASFMLLIFILGPTLFIMKGYVENTGAYLANFIDISTWNDTYLGSGWQNVWTIFYWAWWIAWSPFVGSFIARISKGRTVKEFVLGVLIVPGLITLLWMNVFGGSALHTILSGDVTMIAAVKADVSTALFVFLENFPFTKFLSIVAIILIFSFFITSSDSGSLVVDNITSGSNGESPVWQRVFWSFAQGIIAIVLLWGGGLDALQTAVIITGLPFAVILLVMCYSLQKGLKEELAKSSKKAKSKEEKSYKEIIAELLDEPQSK",–,3
